Experimental data reported in patent US12234202B2, “Covalent inhibitors of coronavirus papain-like protease” (UT-Battelle, LLC, priority 2021, dated 2025).
pEC50, pIC50: −log10 of the molar value. Where two headings read alike, the source gives them in different places.

Columns and labels:
SARS-CoV-2 PLpro [1] = biological target: T1, SARS-CoV-2 PLpro (Severe acute respiratory syndrome coronavirus 2, UniProt P0DTD1); test: biochemical; format: biochemical; conditions: after 30-minute incubation; Z-RLRGG-AMC
SARS-CoV-2 PLpro [2] = biological target: T1, SARS-CoV-2 PLpro; test: biochemical; conditions: for kinact/KI / kinact/KI (M^−1 s^−1): second-order rate constant
[3] = system: SARS-CoV-2 isolate USA-WA1/2020; test: microbe, parasite or virus in culture; format: cell-based
Vero E6 cells [4] = system: Vero E6 cells
in vitro [5] = conditions: African green monkey
[6] = biological target: seven human DUBs, UCHL1, USP2, USP4, USP7, USP8, USP15, and USP30; test: Human deubiquitinase selectivity screening; format: biochemical; conditions: for IC50: UCHL1, USP2, USP4, USP7, USP8, USP15, USP30, read-out: IC50 (μM) values versus seven human deubiquitinases; for inhibition of human DUBs: concentrations up to 30 μM
SARS-CoV-2 USA-WA1/2020 [7] = test: CPE assay in Vero E6 cells, neutral red staining, USA-WA1/2020; format: cell-based; conditions: Severe acute respiratory syndrome coronavirus 2, Vero C1008
[8] = system: SARS-CoV-2 Delta (B.1.617.2); test: CPE assay in Vero E6 cells, neutral red staining, Delta; format: cell-based; conditions: Severe acute respiratory syndrome coronavirus 2, Vero C1008
[9] = system: SARS-CoV-2 Omicron (B.1.1.529); test: CPE assay in Vero E6 cells, neutral red staining, Omicron; format: cell-based; conditions: Severe acute respiratory syndrome coronavirus 2, Vero C1008
SARS-CoV-2 USA-WA1/2020 [10] = test: microbe, parasite or virus in culture; format: cell-based; conditions: Severe acute respiratory syndrome coronavirus 2, Caco-2
[11] = system: SARS-CoV-2 Delta (B.1.617.2); test: microbe, parasite or virus in culture; format: cell-based; conditions: Severe acute respiratory syndrome coronavirus 2, Caco-2
[12] = system: SARS-CoV-2 Omicron (B.1.1.529); test: microbe, parasite or virus in culture; format: cell-based; conditions: Severe acute respiratory syndrome coronavirus 2, Caco-2
Vero E6 cells [13] = conditions: 2 μM CP-100356, Delta row
Caco-2 cells = conditions: Delta row
[14] = mouse, in vivo
in vitro [15] = conditions: African green monkey; remark: listed apart in the source
in vitro [16] = conditions: human
in vitro [17] = conditions: human, microsomes
in vitro [18] = conditions: human, s9
[19] = system: viral replication in Vero E6 cells; conditions: K. Ratia et al.; cited from earlier work
SARS-CoV-2 PLpro [20] = biological target: T1, SARS-CoV-2 PLpro; test: biochemical; conditions: Ub-rhodamine substrate
SARS-CoV-2 PLpro [21] = biological target: T1, SARS-CoV-2 PLpro; test: biochemical; conditions: ISG15-CHOP2 substrate
SARS-CoV PLpro = SARS-CoV PLpro (Severe acute respiratory syndrome coronavirus (SARS-CoV), UniProt P0C6X7); conditions: cited from earlier work
HAUSP = HAUSP (Homo sapiens (Human), UniProt Q93009); conditions: K. Ratia et al.; cited from earlier work
deISGylase USP18 = deISGylase USP18 (Homo sapiens (Human), UniProt Q9UMW8); conditions: K. Ratia et al.; cited from earlier work
[22] = biological target: ubiquitin C-terminal hydrolase UCH-L1 (Homo sapiens (Human), UniProt P09936); conditions: K. Ratia et al.; cited from earlier work
[23] = biological target: ubiquitin C-terminal hydrolase UCH-L3 (Homo sapiens (Human), UniProt P15374); conditions: K. Ratia et al.; cited from earlier work
cell viability = conditions: concentrations up to 50 μM in cell viability assays; cited from earlier work
[24] = time-dependent inhibition yes/no
[25] = cytopathic effect in SARS-CoV-2-infected Vero E6 cells, 48 h, MOI 0.1

Compound | pIC50 (SARS-CoV-2 PLpro [1]) | kinact/KI (SARS-CoV-2 PLpro [2]) | Time dep. (SARS-CoV-2 PLpro [2]; [24]) | EC50 (μM) [3, 25] | Cytotox. (<30 μM) (Vero E6 cells [4]) | CC50 at 48 h (in vitro [5]) | other results
C#CC(=O)NNC(=O)CCc1ccccc1C(=O)N[C@H](C)c1cccc2ccccc12 [Compound 12, (R)—N-(1-(naphthalen-1-yl)ethyl)-2-(3-oxo-3-(2-propioloylhydrazineyl)propyl)benzamide] | 7.01 | 4800 M⁻¹ s⁻¹ | Time-dependent inhibition was observed and yes | no CPE | yes | 1 to 5 µM | –
COC(=O)/C=C/C(=O)NNC(=O)CCc1ccccc1C(=O)N[C@H](C)c1cccc2ccccc12 [Compound 7, methyl(R,E)-4-(2-(3-(2-((1-(naphthalen-1 yl)ethyl)carbamoyl)-phenyl)propanoyl)hydrazineyl)-4-oxobut-2-enoate] | – | – | yes | – | no | > 30 µM | IC50 [6]: > 30 µM; inhibition of human DUBs [6]: no inhibition was observed; pEC50 (SARS-CoV-2 USA-WA1/2020 [7]): 7.17; pEC50 [8]: 6.54; pEC50 [9]: 6.17; EC90 (SARS-CoV-2 USA-WA1/2020 [10]): 0.26 µM; EC90 [11]: > 10 µM; EC90 [12]: 2.4 µM; CC50 (Vero E6 cells [13]): > 10 µM; CC50 (Caco-2 cells): > 10 µM; exposure following IV dosing ([14]; iv, 3 mg/kg): Little exposure was observed; exposure following PO dosing ([14]; po, 10 mg/kg): no exposure recorded; CC50 (in vitro [15]): > 10 µM; CC50 (in vitro [16]): > 10 µM; half-life at 1 μM (in vitro [17]): 50 min; half-life at 1 μM (in vitro [18]): 60 min
C[C@@H](NC(=O)c1ccccc1CCC(=O)NNC(=O)C(C#N)=CC1CC1)c1cccc2ccccc12 [Compound 13, (R)-2-(3-(2-(2-cyano-3-cyclopropylacryloyl)hydrazineyl)-3-oxopropyl)-N-(1-(naphthalen-1-yl)ethyl)benzamide] | < 3.70 | – | not and no | no CPE | yes | 1 to 5 µM | –
C[C@@H](NC(=O)c1ccccc1CCC(=O)NN)c1cccc2ccccc12 [Compound 5, (R)-2-(3-hydrazineyl-3-oxopropyl)-N-(1-(naphthalen-1-yl)ethyl)benzamide] | 4.62 | – | no | – | – | – | –
COC(=O)/C=C/C(=O)NNC(=O)CCc1ccc(NC(C)=O)cc1C(=O)N[C@H](C)c1cccc2ccccc12 [Compound 8, methyl-(R,E)-4-(2-(3-(4-acetamido-2-((1-(naphthalen-1-yl)ethyl)carbamoyl)phenyl)propanoyl)hydrazineyl)-4-oxobut-2-enoate] | – | 14000 M⁻¹ s⁻¹ | – | – | no | – | kinact/KI (M^−1 s^−1) (SARS-CoV-2 PLpro [2]): 14,000 M^−1 s^−1
COC(=O)CCc1ccccc1C(=O)N[C@H](C)c1cccc2ccccc12 [Compound 3, methyl (R)-3-(2-((1-(naphthalen-1-yl)ethyl)carbamoyl)phenyl)-propanoate] | – | – | no | – | – | – | –
Cc1ccccc1C(=O)N[C@H](C)c1cccc2ccccc12 [Compound 14, (R)-2-methyl-N-(1-(naphthalen-1-yl)ethyl)benzamide] | 4.00 | – | – | no CPE | no | – | pEC50 [19]: 5.00; half-life at 1 μM (in vitro [17]): 41 min; half-life at 1 μM (in vitro [18]): > 60 min
CC(=O)Nc1ccc(CCC(=O)NNC(=O)CCl)c(C(=O)N[C@H](C)c2cccc3ccccc23)c1 [Compound 10, (R)-5-acetamido-2-(3-(2-(2-chloroacetyl)hydrazineyl)-3-oxopropyl)-N-(1-(naphthalen-1-yl)ethyl)benzamide] | 5.36 | 120 M⁻¹ s⁻¹ | yes | no CPE | no | – | kinact/KI (M^−1 s^−1) (SARS-CoV-2 PLpro [2]): 120 M⁻¹ s⁻¹; cytoprotective effects ([3]; SARS-CoV-2-infected Vero E6 cells): insignificant cytoprotective effects
CCC(CC)COC(=O)[C@H](C)N[P@](=O)(OC[C@H]1O[C@@](C#N)(c2ccc3c(N)ncnn23)[C@H](O)[C@@H]1O)Oc1ccccc1 [remdesivir, reference compound] | – | – | – | – | – | – | pEC50 ([3]; Severe acute respiratory syndrome coronavirus 2, Vero C1008, 48 h): 6.13
C[C@@H](NC(=O)c1ccccc1CCC(=O)NNC(=O)CC#N)c1cccc2ccccc12 [Compound 11, (R)-2-(3-(2-(2-cyanoacetyl)hydrazineyl)-3-oxopropyl)-N-(1-(naphthalen-1-yl)ethyl)benzamide] | 5.10 | – | not and no | no CPE | no | – | –
C[C@@H](NC(=O)c1ccccc1CCC(=O)NNC(=O)CCl)c1cccc2ccccc12 [Compound 9, (R)-2-(3-(2-(2-chloroacetyl)hydrazineyl)-3-oxopropyl)-N-(1-(naphthalen-1-yl)ethyl)benzamide] | 5.27 | 100 M⁻¹ s⁻¹ | yes | – | no | > 30 µM | kinact/KI (M^−1 s^−1) (SARS-CoV-2 PLpro [2]): 103 M⁻¹ s⁻¹; pIC50 (SARS-CoV-2 PLpro [20]): 5.71; pIC50 (SARS-CoV-2 PLpro [21]): 4.69; pEC50 ([3]; Severe acute respiratory syndrome coronavirus 2, Vero C1008, cytopathic effect in SARS-CoV-2-infected Vero E6 cells, 48 h, MOI 0.1): 4.47; IC50 [6]: > 30 µM; inhibition of human DUBs [6]: no inhibition was observed; half-life at 1 μM (in vitro [17]): 7 min; half-life at 1 μM (in vitro [18]): 3 min
CC(=O)Nc1ccc(C)c(C(=O)N[C@H](C)c2cccc3ccccc23)c1 [Compound 15, (R)-5-acetamido-2-methyl-N-(1-(naphthalen-1-yl)ethyl)benzamide] | 5.21 | – | – | no CPE | no | – | pIC50 (SARS-CoV PLpro): 5.59; pEC50 [19]: 4.88
GRL0617 | – | – | – | – | – | – | Time dep. (SARS-CoV-2 PLpro [2]): no; pIC50 (HAUSP): < 4.00; pIC50 (deISGylase USP18): < 4.00; pIC50 [22]: < 4.00; pIC50 [23]: < 4.00; cytotoxicity (cell viability): does not display cytotoxicity
